The assay relates to B6C3F1 mice, B16 melanoma ip, median survival T/C. The assay is described as follows: NCI In Vivo Anticancer Drug Screen. Data for tumor model B16 Melanoma (intraperitoneal) in B6C3F1 mice. The note with it: endpoint: median survival time, higher = longer survival. The method, boiled down: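 Transplantable tumor in mice; treated vs vehicle control groups; survival or tumor size measured; value = T/C ratio.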

Where [1] appears, read: dose: 100.0 mg/kg/injection, schedule: Q01DX009 (ip), vehicle: Klucel (hydroxypropylcellulose) (HPC).
[2] abbreviates: dose: 200.0 mg/kg/injection, schedule: Q01DX009 (ip), vehicle: Klucel (hydroxypropylcellulose) (HPC).
[3] abbreviates: dose: 400.0 mg/kg/injection, schedule: Q01DX009 (ip), vehicle: Klucel (hydroxypropylcellulose) (HPC).
Where [4] appears, read: dose: 25.0 mg/kg/injection, schedule: Q01DX009 (ip), vehicle: Klucel (hydroxypropylcellulose) (HPC).
The mark [5] stands for this setting: dose: 50.0 mg/kg/injection, schedule: Q01DX009 (ip), vehicle: Klucel (hydroxypropylcellulose) (HPC).
The mark [6] stands for this setting: dose: 6.25 mg/kg/injection, schedule: Q01DX009 (ip), vehicle: saline with Tween-80.
Setting [7] is: dose: 12.5 mg/kg/injection, schedule: Q01DX009 (ip), vehicle: saline with Tween-80.
Where [8] appears, read: dose: 50.0 mg/kg/injection, schedule: Q01DX009 (ip), vehicle: saline with Tween-80.
Where [9] appears, read: dose: 100.0 mg/kg/injection, schedule: Q01DX009 (ip), vehicle: saline with Tween-80.
Setting [10] is: dose: 200.0 mg/kg/injection, schedule: Q01DX009 (ip), vehicle: saline with Tween-80.
Where [11] appears, read: dose: 400.0 mg/kg/injection, schedule: Q01DX009 (ip), vehicle: saline with Tween-80.
Setting [12] is: dose: 12.5 mg/kg/injection, schedule: Q01DX009 (ip), vehicle: Klucel (hydroxypropylcellulose) (HPC).
The mark [13] stands for this setting: dose: 25.0 mg/kg/injection, schedule: Q01DX009 (ip), vehicle: saline with Tween-80.
The mark [14] stands for this setting: dose: 12.5 mg/kg/injection, schedule: Q01DX009 (ip), vehicle: saline.
Setting [15] is: dose: 100.0 mg/kg/injection, schedule: Q01DX009 (ip), vehicle: saline.

“And” between values parts separate entries of the source, which are not always exact repeats. Equal values may be shown once. Inconclusive results and toxic doses are left out. *1 amine or outer side, *2 acyl side, *3 side chain or, on linkers, in order; H or OH if unused. Where a SMILES comes first, the peptide text is derived from it. Bridges are numbered along the chain shown (N, C = ends). Roman numbers before positions name the chains, in order. [ ]: non-standard residue; d: D form. Actinocin(9to1) = Cc1c2oc3c(C)ccc(C(=O)[*:1])c3nc-2c(C(=O)[*:2])c(N)c1=O; NMeA = CN[CH](C)C(=O)O; Sar = CNCC(=O)O

Consider `CCC(C)C(NC(=O)OC(C)(C)C)C(=O)O` (stereo not drawn), for which the T/C reads like this: under setting [1], 99 % of control; under setting [2], 92 % of control; under setting [3], 87 % of control.

In the case of `CCOC(=O)N(CCCCCCNC(c1ccccc1)S(=O)(=O)O)c1ccccc1` (stereo not drawn), the T/C was 96 % of control under setting [4], 100 % of control under setting [5] and 100 % of control under setting [1].

For the compound `Nc1cc2c3c(cccc3c1)C(=O)N(CCN1CCCC1)C2=O`, the T/C is 113 % of control and 106 % of control (dose: 3.12 mg/kg/injection, schedule: Q01DX009 (ip), vehicle: saline with Tween-80); 97 % of control and 98 % of control under setting [6]; 115 % of control and 107 % of control under setting [7]; 122 % of control under setting [8].

On to `c1ccc(-c2cc3cc4ccccc4cn3c2)cc1`, for which the T/C under setting [8] is 110 % of control; the T/C under setting [9] was 118 % of control; the T/C under setting [10] is 116 % of control; the T/C under setting [11] is 105 % of control; the T/C (dose: 800.0 mg/kg/injection, schedule: Q01DX009 (ip), vehicle: saline with Tween-80) is 108 % of control.

On to `CC(O)C(NC(=O)OCC1c2ccccc2-c2ccccc21)C(=O)O` (stereo not drawn), for which the T/C by setting is: under setting [12], 94 % of control and 98 % of control; under setting [4], 88 % of control and 96 % of control; under setting [5], 100 % of control and 101 % of control; under setting [1], 93 % of control and 98 % of control; under setting [2], 90 % of control and 100 % of control.

For the compound `O=C1CC2(C(=O)N1CN1CCOCC1)c1ccccc1-c1ccccc12`, the T/C is, setting by setting: under setting [1], 93 % of control; under setting [2], 98 % of control; under setting [3], 93 % of control.

In the case of `c1cc(OCC2CO2)ccc1OCC1CO1` (stereo not drawn), the T/C was 109 % of control under setting [12]; 121 % of control and 103 % of control under setting [4]; 105 % of control under setting [5]; 117 % of control under setting [2].

On to `Nc1nc(=S)c2ncn(C3OC(COC(=O)c4ccccc4)C(OC(=O)c4ccccc4)C3OC(=O)c3ccccc3)c2[nH]1` (stereo not drawn), for which the T/C by setting is: under setting [6], 112 % of control; under setting [7], 117 % of control; under setting [13], 111 % of control; under setting [8], 97 % of control.

As to `Clc1ccc(C[P+](c2ccccc2)(c2ccccc2)c2ccccc2)cc1Cl`, the T/C runs as follows: (dose: 0.78 mg/kg/injection, schedule: Q01DX009 (ip), vehicle: Klucel (hydroxypropylcellulose) (HPC)) 99 % of control; (dose: 1.56 mg/kg/injection, schedule: Q01DX009 (ip), vehicle: Klucel (hydroxypropylcellulose) (HPC)) 107 % of control; (dose: 3.12 mg/kg/injection, schedule: Q01DX009 (ip), vehicle: Klucel (hydroxypropylcellulose) (HPC)) 103 % of control; under setting [12], 88 % of control.

For `O=C(Nc1ccccc1CCl)Nc1ccccc1CCl`, the T/C under setting [13] was 111 % of control, the T/C under setting [8] was 115 % of control, the T/C under setting [9] was 115 % of control and the T/C under setting [10] was 118 % of control.

As to `CN(Cc1cnc2nc(N)nc(N)c2n1)c1c(Cl)cc(C(=O)NC(CCC(=O)O)C(=O)O)cc1Cl` (stereo not drawn), the T/C was 96 % of control under setting [14] and 91 % of control (dose: 25.0 mg/kg/injection, schedule: Q01DX009 (ip), vehicle: saline).

On to `[Cl][Pt+2][Cl].[NH-]CC1(C[NH-])CCC1`, for which the T/C reads like this: (dose: 0.19 mg/kg/injection, schedule: Q01DX009 (ip), vehicle: suspension in saline) 107 % of control; (dose: 0.39 mg/kg/injection, schedule: Q01DX009 (ip), vehicle: suspension in saline) 114 % of control; (dose: 0.78 mg/kg/injection, schedule: Q01DX009 (ip), vehicle: suspension in saline) 123 % of control; (dose: 1.56 mg/kg/injection, schedule: Q01DX009 (ip), vehicle: suspension in saline) 151 % of control; (dose: 3.12 mg/kg/injection, schedule: Q01DX009 (ip), vehicle: suspension in saline) 167 % of control.

With `Cc1c2ccncc2c(COC2OC(CO)C(O)C2O)c2c3ccccc3n(C)c12` (stereo not drawn), the T/C under setting [14] was 123 % of control; the T/C under setting [15] was 98 % of control; the T/C (dose: 200.0 mg/kg/injection, schedule: Q01DX009 (ip), vehicle: saline) is 121 % of control.

As for `CC1(c2ccc(Cl)cc2)OC(=O)C(=Cc2ccc([N+](=O)[O-])s2)C(=O)O1` (stereo not drawn), the T/C was 89 % of control under setting [6], 86 % of control under setting [7], 90 % of control under setting [13] and 89 % of control under setting [8].

As for `CC1=NNC(=O)C1CCO` (stereo not drawn), the T/C under setting [12] is 98 % of control; the T/C under setting [4] is 104 % of control; the T/C under setting [5] was 98 % of control; the T/C under setting [1] is 98 % of control; the T/C under setting [2] was 96 % of control; the T/C under setting [3] is 96 % of control.

Regarding `C[Si](C)(C)n1nnn(-c2ccccc2)c1=O`, the T/C was 101 % of control and 103 % of control under setting [7]; 100 % of control and 105 % of control under setting [13]; 119 % of control and 100 % of control under setting [8]; 92 % of control and 95 % of control under setting [9]; 93 % of control and 101 % of control under setting [10]; 95 % of control under setting [11].

For `CC(C)CC1C(=O)OC(C(C)C)C(=O)N(C)C(CC(C)C)C(=O)OC(C(C)C)C(=O)N(C)C(CC(C)C)C(=O)OC(C(C)C)C(=O)N(C)C(CC(C)C)C(=O)OC(C(C)C)C(=O)N1C` (stereo not drawn), the T/C (dose: 1.0 mg/kg/injection, schedule: Q01DX009 (ip), vehicle: saline) was 97 % of control; the T/C (dose: 2.0 mg/kg/injection, schedule: Q01DX009 (ip), vehicle: saline) is 99 % of control; the T/C (dose: 4.0 mg/kg/injection, schedule: Q01DX009 (ip), vehicle: saline) is 104 % of control; the T/C (dose: 8.0 mg/kg/injection, schedule: Q01DX009 (ip), vehicle: saline) was 102 % of control; the T/C (dose: 16.0 mg/kg/injection, schedule: Q01DX009 (ip), vehicle: saline) was 101 % of control.

In the case of `CCC1OCC(C(Cl)CCl)O1` (stereo not drawn), the T/C by setting is: under setting [4], 105 % of control; under setting [5], 96 % of control; under setting [1], 91 % of control; under setting [2], 98 % of control.

With `CCCCN(CCCC)CCNc1ccc(Cl)c2oc3cc(C)ccc3c(=O)c12`, the T/C is 94 % of control (dose: 50.0 mg/kg/injection, schedule: Q01DX009 (ip), vehicle: saline) and 87 % of control under setting [15].

In the case of `Cc1cccc(Nc2c(N)nc(N)nc2N)c1`, the T/C by setting is: under setting [5], 102 % of control; (dose: 75.0 mg/kg/injection, schedule: Q01DX009 (ip), vehicle: Klucel (hydroxypropylcellulose) (HPC)) 99 % of control.

In the case of `Cc1c2oc3c(C)ccc(C(=O)NC4C(=O)NC(C(C)C)C(=O)N5CCCC5C(=O)N(C)CC(=O)N(C)C(C)C(=O)OC4C)c3nc-2c(C(=O)NC2C(=O)NC(C(C)C)C(=O)N3CCCC3C(=O)N(C)CC(=O)N(C)C(C)C(=O)OC2C)c(N)c1=O` (stereo not drawn) (I: TVP[Sar][NMeA] / II: TVP[Sar][NMeA]; ester I:1-I:C, II:1-II:C; linker I:N-II:N via Actinocin(9to1); configuration not given here), the T/C (dose: 0.25 mg/kg/injection, schedule: Q04DX003 (ip), vehicle: saline + alcohol) is 116 % of control; the T/C (dose: 0.5 mg/kg/injection, schedule: Q04DX003 (ip), vehicle: saline + alcohol) is 118 % of control; the T/C (dose: 1.0 mg/kg/injection, schedule: Q04DX003 (ip), vehicle: saline + alcohol) was 112 % of control and 113 % of control; the T/C (dose: 2.0 mg/kg/injection, schedule: Q04DX003 (ip), vehicle: saline + alcohol) is 116 % of control and 104 % of control; the T/C (dose: 4.0 mg/kg/injection, schedule: Q04DX003 (ip), vehicle: saline + alcohol) was 115 % of control.

For the compound `NC(=O)c1c[se]c(C2OC(CO)C(O)C2O)n1` (stereo not drawn), the T/C (dose: 12.5 mg/kg/injection, schedule: Q01DX009 (ip), vehicle: water) is 109 % of control; the T/C (dose: 25.0 mg/kg/injection, schedule: Q01DX009 (ip), vehicle: water) is 102 % of control; the T/C (dose: 50.0 mg/kg/injection, schedule: Q01DX009 (ip), vehicle: water) was 115 % of control; the T/C (dose: 100.0 mg/kg/injection, schedule: Q01DX009 (ip), vehicle: water) was 109 % of control.

Consider `COC1CC(C)C(OC)C2=CC(=O)C=C(NC(=O)/C(C)=C/C=C\C(C)C(OC(N)=O)/C(C)=C\C(C)C1OC)C2=O` (stereo not drawn), for which the T/C by setting is: (dose: 2.5 mg/kg/injection, schedule: Q01DX009 (ip), vehicle: saline + alcohol) 176 % of control; (dose: 5.0 mg/kg/injection, schedule: Q01DX009 (ip), vehicle: saline + alcohol) 155 % of control; (dose: 10.0 mg/kg/injection, schedule: Q01DX009 (ip), vehicle: saline + alcohol) 174 % of control.

For `c1ccc(P(CCNCCP(c2ccccc2)c2ccccc2)c2ccccc2)cc1`, the T/C under setting [13] is 113 % of control, the T/C under setting [8] is 105 % of control and the T/C under setting [9] was 116 % of control.
